Key:
[1] = target: full-length human Nurr1 (NBRE) (Homo sapiens, UniProt P43354); settings: all compounds tested at 10 μM, n = 3
[2] = target: human Nurr1 (Homo sapiens, UniProt P43354); settings: for activation of Gal4-Nurr1 (hybrid assay): all compounds tested at 10 μM, n = 3; for EC50(Nurr1): Gal4 hybrid reporter gene assay, mean ± S.E.M., n ≥ 3, inactive = at 10 μM
[3] = target: T1, NOR1 (NR4A3) (Homo sapiens, UniProt Q92570); assay: cell-based
T1 sequence (Q92570 394-623 limits assumed): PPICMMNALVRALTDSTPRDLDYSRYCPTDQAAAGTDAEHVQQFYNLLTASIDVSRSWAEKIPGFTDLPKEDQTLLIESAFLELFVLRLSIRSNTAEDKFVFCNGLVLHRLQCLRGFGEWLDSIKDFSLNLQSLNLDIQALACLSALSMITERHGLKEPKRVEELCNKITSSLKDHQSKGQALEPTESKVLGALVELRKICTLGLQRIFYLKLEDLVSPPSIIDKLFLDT

Sequence of full-length human Nurr1 (NBRE) (P43354 whole entry, the tested form may be a part): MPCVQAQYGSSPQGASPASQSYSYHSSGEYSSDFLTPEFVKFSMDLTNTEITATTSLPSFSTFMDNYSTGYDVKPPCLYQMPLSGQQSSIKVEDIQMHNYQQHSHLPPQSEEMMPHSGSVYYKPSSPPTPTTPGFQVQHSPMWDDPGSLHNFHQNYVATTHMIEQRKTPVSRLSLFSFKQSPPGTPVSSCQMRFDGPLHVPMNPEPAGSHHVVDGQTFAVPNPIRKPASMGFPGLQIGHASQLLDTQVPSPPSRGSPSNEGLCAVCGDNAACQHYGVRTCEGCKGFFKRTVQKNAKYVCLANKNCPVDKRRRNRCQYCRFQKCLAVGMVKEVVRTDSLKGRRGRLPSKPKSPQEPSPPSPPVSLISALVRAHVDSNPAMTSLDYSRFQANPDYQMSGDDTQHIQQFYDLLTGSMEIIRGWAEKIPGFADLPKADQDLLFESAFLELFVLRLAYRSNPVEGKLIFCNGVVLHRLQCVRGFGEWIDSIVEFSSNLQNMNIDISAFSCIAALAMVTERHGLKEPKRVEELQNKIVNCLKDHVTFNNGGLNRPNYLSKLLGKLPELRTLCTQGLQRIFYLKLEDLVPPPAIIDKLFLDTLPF
Sequence of human Nurr1 (P43354 360-595 limits assumed): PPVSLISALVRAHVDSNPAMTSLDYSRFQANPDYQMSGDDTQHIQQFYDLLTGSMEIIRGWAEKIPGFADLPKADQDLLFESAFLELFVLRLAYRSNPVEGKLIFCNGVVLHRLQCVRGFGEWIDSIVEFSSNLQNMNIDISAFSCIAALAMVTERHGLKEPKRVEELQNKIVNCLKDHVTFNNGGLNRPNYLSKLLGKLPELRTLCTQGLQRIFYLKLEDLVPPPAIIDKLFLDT

SMILES | activation of full-length Nurr1 (NBRE) [1] | activation of Gal4-Nurr1 (hybrid assay) [2] | EC50(Nurr1) [2] | EC50 [3] [µM]
Cc1ccccc1-c1ccc(-c2cc(C(=O)O)c3c(c2)nnn3C)cc1 [AG-636] | No other tested DHODH inhibitor caused activation | No other tested DHODH inhibitor caused activation |  | 
O=C(Nc1c(F)c(F)c(-c2ccccc2)c(F)c1F)c1c(=O)[nH]n2ccccc12 [MEDS433] | No other tested DHODH inhibitor caused activation | No other tested DHODH inhibitor caused activation |  | 
[2H]C([2H])([2H])Oc1cccc(C23CCC(NC(=O)C4=C(C(=O)O)CCC4)(CC2)CC3)c1 [compound 8] |  |  | inactive (10 μM) | 
[2H]C([2H])([2H])Oc1cccc(-c2ccc(N(C)C(=O)C3=C(C(=O)O)CCC3)c(F)c2)c1 [compound 9] |  |  | inactive (10 μM) | 
C#CCOc1cccc(-c2ccc(NC(=O)C3=C(C(=O)O)CCC3)c(F)c2)c1 [compound 29, 2-[(3-Fluoro-3′-prop-2-yn-1-yloxy[1,1′-biphenyl]-4-yl)carbamoyl]cyclopent-1-ene-1-carboxylic acid] |  |  |  | 1.3 ± 0.3
COc1cccc(-c2cc(F)c(Nc3ncccc3C(=O)O)c(F)c2)c1 [farudodstat] | No other tested DHODH inhibitor caused activation | No other tested DHODH inhibitor caused activation |  | 
